The record followed here is patent US20060079566A1, “PDK-1/Akt signaling inhibitors” (priority 2003, published 2006).

The structures appear in SMILES notation.

Holding throughout (assay): NCI DTP screen (SRB), Non-Small Cell Lung Cancer
Common to all, as to type: cell-based

One test deals with HOP-92. Particulars: Homo sapiens, HOP-92, read-out: LC50.
A further test relates to HOP-62. Conditions: Homo sapiens. The method, then:
(§1) Screening of compounds 70 and 71 against several cancer cell lines The human tumor cell lines of the cancer screening panel are grown in RPMI 1640 medium containing 5% fetal bovine serum and 2 mM L-glutamine. For a typical screening experiment, cells are inoculated into 96 well microtiter plates in 100 μL at plating densities ranging from 5,000 to 40,000 cells/well depending on the doubling time of individual cell lines. After cell inoculation, the microtiter plates are incubated at 37° C., 5% CO2, 95% air and 100% relative humidity for 24 h prior to addition of experimental drugs.
(§2) After 24 h, two plates of each cell line are fixed in situ with TCA, to represent a measurement of the cell population for each cell line at the time of drug addition (Tz). Experimental drugs are solubilized in dimethyl sulfoxide at 400-fold the desired final maximum test concentration and stored frozen prior to use. At the time of drug addition, an aliquot of frozen concentrate is thawed and diluted to twice the desired final maximum test concentration with complete medium containing 50 μg/ml gentamicin. Additional four, 10-fold or ½ log serial dilutions are made to provide a total of five drug concentrations plus control. Aliquots of 100 μl of these different drug dilutions are added to the appropriate microtiter wells already containing 100 μl of medium, resulting in the required final drug concentrations.
(§3) Following drug addition, the plates are incubated for an additional 48 h at 37° C., 5% CO2, 95% air, and 100% relative humidity. For adherent cells, the assay is terminated by the addition of cold TCA. Cells are fixed in situ by the gentle addition of 50 μl of cold 50% (w/v) TCA (final concentration, 10% TCA) and incubated for 60 minutes at 4° C. The supernatant is discarded, and the plates are washed five times with tap water and air dried. Sulforhodamine B (SRB) solution (100 μl) at 0.4% (w/v) in 1% acetic acid is added to each well, and plates are incubated for 10 minutes at room temperature. After staining, unbound dye is removed by washing five times with 1% acetic acid and the plates are air dried. Bound stain is subsequently solubilized with 10 mM trizma base, and the absorbance is read on an automated plate reader at a wavelength of 515 nm. For suspension cells, the methodology is the same except that the assay is terminated by fixing settled cells at the bottom of the wells by gently adding 50 μl of 80% TCA (final concentration, 16% TCA). Using the seven absorbance measurements [time zero, (Tz), control growth, (C), and test growth in the presence of drug at the five concentration levels (Ti)], the percentage growth is calculated at each of the drug concentrations levels. Percentage growth inhibition is calculated as: [(Ti−Tz)/(C−Tz)]×100 for concentrations for which Ti>/=Tz [(Ti−Tz)/Tz]×100 for concentrations for which Ti<Tz
(§4) Three dose response parameters are calculated for each experimental agent. […] The drug concentration resulting in total growth inhibition (TGI) is calculated from Ti=Tz. […] Values are calculated for each of these three parameters if the level of activity is reached; however, if the effect is not reached or is exceeded, the value for that parameter is expressed as greater or less than the maximum or minimum concentration tested.

A further test has as its system NCI-H322M. Conditions: NCI-H322M. The method, then:
as §1, §2, §3, §4

The subject of another test is NCI-H460. The method, then:
as §1, §2, §3, §4

A further test has as its system NCI-H226. Conditions: Homo sapiens. As for the experimental part:
as §1, §2, §3, §4

Procedure for HOP-92: After 24 h, two plates of each cell line are fixed in situ with TCA, to represent a measurement of the cell population for each cell line at the time of drug addition (Tz). Experimental drugs are solubilized in dimethyl sulfoxide at 400-fold the desired final maximum test concentration and stored frozen prior to use. […]
Following drug addition, the plates are incubated for an additional 48 h at 37° C., 5% CO2, 95% air, and 100% relative humidity. […] Bound stain is subsequently solubilized with 10 mM trizma base, and the absorbance is read on an automated plate reader at a wavelength of 515 nm. […] Using the seven absorbance measurements [time zero, (Tz), control growth, (C), and test growth in the presence of drug at the five concentration levels (Ti)], the percentage growth is calculated at each of the drug concentrations levels. Percentage growth inhibition is calculated as: [(Ti−Tz)/(C−Tz)]×100 for concentrations for which Ti>/=Tz [(Ti−Tz)/Tz]×100 for concentrations for which Ti<Tz […]

Consider `NCC(=O)Nc1ccc(-n2nc(C(F)(F)F)cc2-c2ccc3c(ccc4ccccc43)c2)cc1` [Compound 70, 2-Amino-N-{4-[5-(2-phenanthrenyl)-3-(trifluoromethyl)-1H-pyrazol-1-yl]-phenyl}-acetamide], for which the CC50 in the test with HOP-92 was 5.87 µM; in the test with HOP-62 (HOP-62, read-out: LC50), 7.13 µM; with NCI-H322M (Homo sapiens, read-out: LC50), 5.4 µM; with NCI-H460 (Homo sapiens, NCI-H460, read-out: LC50), over 100 µM. The GI50 (commonly the concentration that inhibits growth by half) was found to be 1.27 µM with HOP-62 (HOP-62); 0.421 µM with NCI-H460 (Homo sapiens, NCI-H460); 1.2 µM in the test with NCI-H226. Moreover, the “Mean Optical Densities” value with NCI-H322M (Log10 Concentration −5.0) is reported as 1.100; in the test on NCI-H460 (NCI-H460, Log10 Concentration −6.0) it was 1.830. Also, the “Percent Growth” value in the test on NCI-H322M (Log10 Concentration −8.0) is 60%; with NCI-H460 (NCI-H460, Log10 Concentration −5.0) it was −66%.
